Measurements from ChEMBL document CHEMBL1129852, “Peptidyl -keto thiazole as potent thrombin inhibitors” (Bioorg Med Chem Lett, 1997).

Assays:
[1] = target: T1, Serine protease 1 (Bos taurus, UniProt P00760); test: Inhibition of trypsin
T1 sequence (P00760 whole entry): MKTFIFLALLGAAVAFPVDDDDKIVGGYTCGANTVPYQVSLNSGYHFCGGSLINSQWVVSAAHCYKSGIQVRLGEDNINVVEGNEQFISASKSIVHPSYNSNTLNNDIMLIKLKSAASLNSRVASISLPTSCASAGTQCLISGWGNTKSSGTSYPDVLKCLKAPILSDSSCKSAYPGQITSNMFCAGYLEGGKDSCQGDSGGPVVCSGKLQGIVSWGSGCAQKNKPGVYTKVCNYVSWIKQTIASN

[2] = The compound was tested for the inhibitory activity against elastase enzyme; type: functional; details: Homo sapiens
[3] = target: Prothrombin (Homo sapiens, UniProt P00734); test: Inhibition of thrombin
[4] = target: Prolyl endopeptidase (Sus scrofa, UniProt P23687); test: The compound was tested for the inhibitory activity against prolyl endo peptidase(PEP) enzyme
Sequence of Prolyl endopeptidase (P23687 whole entry): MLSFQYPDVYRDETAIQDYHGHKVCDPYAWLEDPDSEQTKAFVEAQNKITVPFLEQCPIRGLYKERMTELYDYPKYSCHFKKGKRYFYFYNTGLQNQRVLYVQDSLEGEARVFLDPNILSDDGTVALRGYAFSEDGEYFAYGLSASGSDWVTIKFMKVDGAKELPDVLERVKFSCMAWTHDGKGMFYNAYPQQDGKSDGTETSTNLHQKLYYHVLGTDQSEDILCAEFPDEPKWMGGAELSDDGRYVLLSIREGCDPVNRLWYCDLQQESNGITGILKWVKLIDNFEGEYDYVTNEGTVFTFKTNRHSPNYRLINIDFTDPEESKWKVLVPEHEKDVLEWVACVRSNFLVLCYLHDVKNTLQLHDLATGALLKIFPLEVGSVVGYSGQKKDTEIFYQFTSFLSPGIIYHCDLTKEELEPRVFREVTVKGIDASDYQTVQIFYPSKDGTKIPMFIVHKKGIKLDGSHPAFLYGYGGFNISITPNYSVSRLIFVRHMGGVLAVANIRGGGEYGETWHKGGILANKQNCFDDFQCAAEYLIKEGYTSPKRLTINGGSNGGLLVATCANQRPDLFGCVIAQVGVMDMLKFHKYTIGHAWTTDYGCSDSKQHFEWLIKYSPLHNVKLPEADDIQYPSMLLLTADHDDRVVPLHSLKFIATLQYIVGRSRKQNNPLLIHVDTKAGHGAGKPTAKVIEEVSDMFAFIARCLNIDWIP

[5] = Relative inhibition of trypsin and thrombin; set-up: reference not given here

IC50 [1] [µM]	IC50 [3] [µM]	Ratio [5]	SMILES	IC50 [2] [µM]	IC50 [4] [µM]
0.23	0.82	0.3	N=C(N)NCCC[C@@H](NC(=O)[C@@H]1CCCN1C(=O)CCc1ccccc1)C(=O)c1nccs1	–	–
–	–	56	NC(N)=NCCC[C@@H](NC(=O)[C@@H]1CCCCN1C(=O)[C@H](N)Cc1ccccc1)C(=O)c1nccs1	–	–
41	–	–	N=C(N)NCCC[C@H](NC(=O)[C@@H]1CCCCN1C(=O)[C@H](N)Cc1ccccc1)C(=O)c1nccs1	–	–
1.2	0.26	4.6	NCCCC[C@H](NC(=O)[C@@H]1CCCN1C(=O)[C@H](N)Cc1ccccc1)C(=O)c1nccs1	–	–
0.23	2.3	–	CC(=O)N[C@H](Cc1ccccc1)C(=O)N1CCC[C@H]1C(=O)N[C@H](CCCNC(=N)N)C(=O)c1nccs1	–	–
–	–	3	NC(N)=NCCC[C@H](NC(=O)[C@@H]1CCN1C(=O)[C@H](N)Cc1ccccc1)C(=O)c1nccs1	–	–
16	14	1.1	NCCCCC[C@H](NC(=O)[C@@H]1CCCN1C(=O)[C@H](N)Cc1ccccc1)C(=O)c1nccs1	–	–
–	0.73	–	N=C(N)NCCC[C@@H](NC(=O)[C@@H]1CCCCN1C(=O)[C@H](N)Cc1ccccc1)C(=O)c1nccs1	–	–
–	–	21	CC(C)[C@@H](NC(=O)[C@H](N)Cc1ccccc1)C(=O)N[C@@H](CCCN=C(N)N)C(=O)c1nccs1	–	–
0.0016	0.002	0.8	N=C(N)NCCC[C@@H](NC(=O)[C@@H]1CCCN1C(=O)[C@@H](Cc1ccccc1)NC(=O)OCc1ccccc1)C(=O)c1nccs1	–	–
0.009	0.003	–	N=C(N)NCCC[C@H](NC(=O)[C@@H]1CCN1C(=O)[C@H](N)Cc1ccccc1)C(=O)c1nccs1	–	–
–	–	0.1	CC(=O)N[C@H](Cc1ccccc1)C(=O)N1CCC[C@H]1C(=O)N[C@H](CCCN=C(N)N)C(=O)c1nccs1	–	–
2.4	46	–	NCCCC[C@H](NC(=O)[C@@H]1CCCN1C(=O)CCCc1ccccc1)C(=O)c1nccs1	–	7.8

SMILES	IC50 [1] [µM]	IC50 [3] [µM]	Ratio [5]	IC50 [2] [µM]	IC50 [4] [µM]
O=C(c1nccs1)[C@H]1CCCN1C(=O)[C@@H]1CCCN1C(=O)CCCc1ccccc1	> 1000	> 1000	–	> 1000	0.0044
N=C(N)NCCC[C@H](NC(=O)[C@@H]1CCCN1C(=O)CCCc1ccccc1)C(=O)c1nccs1	0.23	2	–	> 1000	28
CC(C)[C@H](NC(=O)[C@@H]1CCCN1C(=O)CCCc1ccccc1)C(=O)c1nccs1	> 1000	> 1000	–	> 1000	7.7
NC(N)=NCCC[C@H](NC(=O)[C@@H]1CCCN1C(=O)[C@H](N)Cc1ccccc1)C(=O)c1nccs1	0.0042	0.0015	2.8	–	–
CC(C)[C@@H](NC(=O)[C@H](N)Cc1ccccc1)C(=O)N[C@@H](CCCNC(=N)N)C(=O)c1nccs1	0.18	0.0086	–	–	–
C[C@H](NC(=O)[C@@H]1CCCN1C(=O)CCCc1ccccc1)C(=O)c1nccs1	> 1000	> 1000	–	> 1000	0.005
